The values that follow come from publication PMC12113342, “Identification of TRPV1-Inhibitory Peptides from Takifugu fasciatus Skin Hydrolysate and Their Skin-Soothing Mechanisms” (Marine Drugs, 2025).

The subject of one series is RAW 264.7 cells. The experiment in a line: MTS cytotoxicity assay in RAW 264.7 cells. The class given is cell-based. Particulars: 800 μM peptide. The source says: (§1) The 20 peptides with the top scores were selected and entrusted to Nanjing GenScript Biotechnology Co., Ltd., with synthetic sample purity > 95%. The process was as follows: Select the appropriate resin, pretreat it with solvent, remove the resin protective group, and expose the active site. The first protective amino acid is activated and coupled to the resin, and the amino protecting group of the amino acid is removed after washing. Repeat the “Activation–Conjugation–Deprotection” step and gradually add amino acids to lengthen the peptide chain. The peptide is cleaved from the resin with reagents such as TFA while the side-chain guard group is removed. Peptides are precipitated, washed, purified by HPLC, and identified by mass spectrometry. RAW 264.7 cells were purchased from Peking Union Medical College. The cytotoxicity of 20 candidate peptides towards RAW 264.7 cells is evaluated in an MTS assay (Promega, Madison, WI, USA), adapted from reference with modifications. RAW 264.7 cells are maintained in Dulbecco’s Modified Eagle Medium (DMEM, C11995500BT, Gibco, Grand Island, NY, USA) supplemented with 10% fetal bovine serum (F8687, Merck, Darmstadt, Germany) and 1% penicillin-streptomycin (C0222, Beyotime, Shanghai, China) at 37 °C under 5% CO2. […] NO production is measured using a NO detection kit (G2930, Promega) following the manufacturer’s protocol.
A general note: Tetrazolium dyes change colour on reduction, which living cells bring about.

The subject of series [1] is LPS-induced RAW 264.7 cells. Description: NO production in LPS-induced RAW 264.7 cells. The class given is cell-based. To be noted: 200 μM peptide, 2 h pretreatment, then LPS (1 μg/mL) 24 h; vs LPS-treated group.
Excerpt: as §1

Series [2] has as its system TRPV1-mediated Ca2+ influx in CAP-induced HaCaT cells. Description: Capsaicin-induced Ca2+ influx in HaCaT cells (Fluo-4AM fluorescence). It counts as cell-based. Particulars: 200 μM peptide, 24 h pretreatment, CAP-stimulated HaCaT cells. Here is the method: HaCaT cells were purchased from the Kunming Cell Bank, Chinese Academy of Sciences. Adapted from a previous study with modifications, HaCaT cells were cultured in DMEM supplemented with 10% fetal bovine serum and 1% penicillin-streptomycin at 37 °C under 5% CO2. Cells in the logarithmic growth phase were harvested and adjusted to a density of 1 × 10^5 CFU/mL. Cell suspensions (100 μL/well) were seeded into 96-well plates and incubated for 8–12 h. After removing the supernatant, the cells were treated with T10, T14, or T18 peptide solutions (200 μM) for 2, 6, 12, or 24 h, followed by stimulation with 100 μL CAP (IC0060, Solarbio) per well. Untreated cells served as blank controls. Intracellular Ca^2+ levels were quantified using a calcium ion assay kit (S1061S; Beyotime) according to the manufacturer’s protocol. Fluorescence images were captured using an inverted fluorescence microscope and analyzed using ImageJ software (NIH, Bethesda, MD, USA) to calculate the average fluorescence intensity.

Series [3] deals with LPS-induced RAW 264.7 cells. Description: Mouse cytokine array of LPS-induced RAW 264.7 cell supernatants. The class given is cell-based. To be noted: T14 200 μM 6 h pretreatment, LPS 24 h; vs LPS group. Here is the method: The expression levels of 40 cytokines and chemokines in RAW 264.7 cell culture supernatants were analyzed using the Proteome Profiler™ Mouse Cytokine Array Panel A (ARY006, R&D Systems, Minneapolis, MN, USA) following the manufacturer’s protocol. Supernatants from treated groups were collected, and 300 μL per sample was used for each array. All reagents were equilibrated to room temperature (26 ± 0.5 °C) prior to use. The array membrane was blocked with blocking buffer for 2 h at room temperature. During blocking, the detection antibody cocktail was mixed with the cell supernatant and incubated at room temperature for 1 h. The mixture was then transferred to the blocked membrane and incubated overnight at 4 °C. Post-incubation, the membrane was washed three times with wash buffer (≥10 min per wash). Horseradish peroxidase-conjugated streptavidin was added, and the membrane was incubated for 2 h at room temperature. After thorough washing, a chemiluminescent substrate was applied, and signals were captured using a chemiluminescence imaging system. The array images were analyzed using ImageJ software to quantify the integrated optical density.

In series [4] the test system is NF-κB p65 in CAP-induced HaCaT cells. The experiment in a line: Western blot of NF-κB p65 in CAP-induced HaCaT cells. The class given is cell-based. Particulars: varying concentrations of T14 6 h pretreatment, CAP 24 h, total cellular protein. The method, then: Adapted from a previous study with modifications, HaCaT cells were seeded into 6-well plates at a density of 2.0 × 10^5 CFU/mL and cultured for 8–12 h. Cells were pretreated with varying concentrations of T14 for 6 h, followed by co-stimulation with CAP for 24 h. After washing with Dulbecco’s phosphate-buffered saline, the cells were lysed on ice for 1 h using RIPA Lysis Buffer (R0010, Solarbio). Lysates were centrifuged at 12,000× g for 30 min at 4 °C, and the supernatants were collected. Protein concentrations were quantified using a BCA assay and normalized. Loading buffer (P1016, Solarbio) was added at a 1:3 ratio, and the samples were denatured at 95 °C for 5 min using a heat block before being stored at −20 °C.
Proteins (10 μL/lane) were resolved via sodium dodecyl sulfate-polyacrylamide gel electrophoresis and transferred onto polyvinylidene fluoride membranes. Membranes were blocked with 5% skim milk in Tris-buffered saline containing 0.1% Tween-20 for 2 h at room temperature. Primary antibodies against NF-κB p65 (8242T, Cell Signaling Technology, Danvers, MA, USA) and GAPDH (CL594-6004, Abclonal, Wuhan, China) were diluted according to the manufacturer’s guidelines and incubated overnight at 4 °C. […] Band intensities were quantified using ImageJ software.

For series [5], the system named is ET-1 in LPS-induced HUVECs. Description: ET-1 ELISA in LPS-induced HUVECs. It counts as cell-based, human. To be noted: LPS 10 μg/mL 24 h; for ET-1 inhibition rate: (LPS − peptide)/(LPS − control). The method, then: (§2) HUVEC cell were purchased from Peking Union Medical College. HUVECS were cultured according to protocols provided by the Peking Union Medical College Cell Bank. Cells were maintained in DMEM supplemented with 10% fetal bovine serum, 1% penicillin-streptomycin, 1% GlutaMAX™ (25030149, Gibco), 1% non-essential amino acids (N1250, Solarbio), and 2% sodium pyruvate (11360070, Gibco) at 37 °C under 5% CO2. Cells in the logarithmic growth phase were seeded into 24-well plates at 2 × 10^5 CFU/mL and incubated overnight. After supernatant removal, the cells were pretreated with varying concentrations of T14 peptide (50, 100, 200, 400 μM) for 6 h, followed by co-stimulation with LPS (10 μg/mL) for 24 h. Cell culture supernatants were collected, and the expression levels of ET-1 and ICAM-1 were quantified using ELISA kits (E-EL-H0064 for ET-1, E-EL-H6114 for ICAM-1; Procell, Wuhan, China) according to the manufacturer’s instructions. The inhibition rate was calculated using the following formula:Inhibition rate (%) = (LPS − peptide)/(LPS − control) × 100%
(In general: In an ELISA, binding on a coated surface is turned into a signal by an enzyme label.)

Series [6] concerns ICAM-1 in LPS-induced HUVECs. Description: ICAM-1 ELISA in LPS-induced HUVECs. Particulars: LPS 10 μg/mL 24 h; for ICAM-1 inhibition rate: (LPS − peptide)/(LPS − control); for ICAM-1 level: control 0.43, LPS 0.57 pg/mL. The class given is cell-based, human. The method, then: as §2

“And” between values parts separate entries of the source, which are not always exact repeats. Equal entries are not always repeated.

Consider “IFDL [T5, hit peptide from T. fasciatus skin hydrolysate, made by solid-phase synthesis]”, for which, in the series on RAW 264.7 cells, the cell viability entry was “proliferative effects”.
With “LFIL [T9, hit peptide from T. fasciatus skin hydrolysate, made by solid-phase synthesis]”, the cell viability entry with RAW 264.7 cells was “proliferative effects”.
Turning to “LDIF [T14, hit peptide from T. fasciatus skin hydrolysate, made by solid-phase synthesis]”, the “Inhibitory effect on NO production” value in series [1] is recorded as “significant inhibition”. Further, the “inhibition rate of Ca2+ fluorescence intensity” value in series [2] is 73.1%. Also, in series [3], the TIMP-1 expression entry was “markedly upregulated”; the “expression of G-CSF, GM-CSF, ICAM-1, IL-3, IL-6, IL-23 and TNF-α” value is given as “significantly downregulated”; the “expression of M-CSF, IL-1α, IL-7, IL-13, IL-12P70, IL-16, IL-17, IL-27, CCL3, CCL4, CXCL2 and CCL5” value is “moderate downward trend”. Moreover, the p65 expression entry in series [4] is reported as “markedly reduced p65 expression”. The ET-1 inhibition rate in series [5] (100 μM T14, 6 h pretreatment) is given as 24.47%. Moreover, the ET-1 inhibition rate in series [5] (400 μM T14, 6 h pretreatment) is listed as 75.0%. Further, the ET-1 level in series [5] (400 μM T14, 6 h pretreatment, control 2.05, LPS 2.7 pg/mL) amounted to 2.2 pg/mL. In series [6] (50 μM T14, 6 h pretreatment), the ICAM-1 inhibition rate is given as 20.65% and the ICAM-1 level worked out at 0.54 pg/mL. Moreover, in series [6] (400 μM T14, 6 h pretreatment), the ICAM-1 inhibition rate was 49.0% and 48.96%; the ICAM-1 level is reported as 0.50 pg/mL.
